Data published in patent publication US20170000133A1, “BENZOXABOROLE FUNGICIDES” (SYNGENTA PARTICIPATIONS AG, priority 2013, published 2017).

What was measured:
Pythium ultimum = Pythium ultimum / liquid culture (seedling damping off); assay type: cell-based; details: Globisporangium ultimum; 200 ppm; potato dextrose broth, 24° C., 2-3 days after application; read-out: disease control (inhibition of growth determined photometrically)
[1] = test system: Glomerella lagenarium (Colletotrichum lagenarium); experiment: Glomerella lagenarium (Colletotrichum lagenarium) / liquid culture (anthracnose); assay type: cell-based; details: Colletotrichum orbiculare, PDB potato dextrose broth, 24° C., 3-4 days after application, read-out: disease control (inhibition of growth measured photometrically)
Method: 11. Glomerella lagenarium (Colletotrichum lagenarium)/Liquid Culture (Anthracnose): Conidia of the fungus from cryogenic storage were directly mixed into nutrient broth (PDB potato dextrose broth). After placing a DMSO solution of test compound into a 96-well microtiter plate at an application rate of 200 ppm, the nutrient broth containing the fungal spores was added. The test plates were incubated at 24° C. and the inhibition of growth was measured photometrically 3-4 days after application.

[2] = test system: Monographella nivalis (Microdochium nivale); experiment: Monographella nivalis (Microdochium nivale) / liquid culture (foot rot cereals); assay type: cell-based; details: PDB potato dextrose broth, 24° C., 4-5 days after application, read-out: disease control (inhibition of growth determined photometrically)
[3] = test system: Thanatephorus cucumeris (Rhizoctonia solani); experiment: Thanatephorus cucumeris (Rhizoctonia solani) / liquid culture (foot rot, damping-off); assay type: cell-based; details: PDB potato dextrose broth, 24° C., 3-4 days after application, read-out: disease control (inhibition of growth determined photometrically)
Method: 17. Thanatephorus cucumeris (Rhizoctonia solani)/Liquid Culture (Foot Rot, Damping-Off): Mycelia fragments of a newly grown liquid culture of the fungus were directly mixed into nutrient broth (PDB potato dextrose broth). After placing a DMSO solution of the test compounds into a 96-well microtiter plate at an application rate of 200 ppm, the nutrient broth containing the fungal material was added. The test plates were incubated at 24° C. and the inhibition of growth was determined photometrically 3-4 days after application.

Plasmopara viticola = experiment: whole plant or invertebrate; assay type: in vivo; details: foliar, read-out: disease control
Gaeumannomyces graminis = Gaeumannomyces graminis / liquid culture (take-all of cereals); assay type: cell-based; details: PDB potato dextrose broth, 24° C., 4-5 days after application, read-out: disease control (inhibition of growth determined photometrically)
Method: (§1) 14. Gaeumannomyces graminis/Liquid Culture (Take-all of Cereals): Mycelial fragments of the fungus from cryogenic storage were directly mixed into nutrient broth (PDB potato dextrose broth). After placing a DMSO solution of test compound into a 96-well microtiter plate at an application rate of 200 ppm, the nutrient broth Cp.33, containing the fungal spores is added. The test plates were incubated at 24° C. and the inhibition of growth was determined photometrically 4-5 days after application.

[4] = test system: Mycosphaerella arachidis (Cercospora arachidicola); experiment: Mycosphaerella arachidis (Cercospora arachidicola) / liquid culture (early leaf spot); assay type: cell-based; details: PDB potato dextrose broth, 24° C., 4-5 days after application, read-out: disease control (inhibition of growth determined photometrically)
Method: as §1, with “12. Mycosphaerella arachidis (Cercospora arachidicola)/Liquid” for “14. Gaeumannomyces graminis/Liquid”, “(Early Leaf Spot): Conidia” for “(Take-all of Cereals): Mycelial fragments”, “broth” for “broth Cp.33,”, “was” for “is”

[5] = test system: Mycosphaerella graminicola (Septoria tritici); experiment: Mycosphaerella graminicola (Septoria tritici) / liquid culture (Septoria blotch); assay type: cell-based; details: Zymoseptoria tritici, PDB potato dextrose broth, 24° C., 4-5 days after application, read-out: disease control (inhibition of growth determined photometrically)
Method: as §1, with “13. Mycosphaerella graminicola (Septoria tritici)/Liquid” for “14. Gaeumannomyces graminis/Liquid”, “(Septoria Blotch): Conidia” for “(Take-all of Cereals): Mycelial fragments”, “broth” for “broth Cp.33,”, “was” for “is”

O=C(OCC(F)F)c1cc2c(cc1F)COB2O [Compound 427]
≥ 80%: inhibition at 200 ppm (Pythium ultimum) | inhibition at 200 ppm [1] | inhibition at 200 ppm [2] | inhibition at 200 ppm [3]

COC(=O)C(OC(=O)c1cc2c(cc1Cl)COB2O)c1ccccc1 (stereo not shown) [Compound 223]
≥ 80%: pest or weed control at 200 ppm (Plasmopara viticola) | inhibition at 200 ppm (Pythium ultimum) | inhibition at 200 ppm [1] | inhibition at 200 ppm [2]

O=C(OCc1ncc(C(F)(F)F)cc1Cl)c1cc2c(cc1F)COB2O [Compound 409]
≥ 80%: pest or weed control at 200 ppm (Plasmopara viticola) | inhibition at 200 ppm (Pythium ultimum) | inhibition at 200 ppm [1] | inhibition at 200 ppm (Gaeumannomyces graminis) | inhibition at 200 ppm [2] | inhibition at 200 ppm [3]

O=C(OCCC(F)(F)F)c1ccc2c(c1)B(O)OC2 [Compound 369]
≥ 80%: inhibition at 200 ppm (Pythium ultimum) | inhibition at 200 ppm [1] | inhibition at 200 ppm (Gaeumannomyces graminis) | inhibition at 200 ppm [2] | inhibition at 200 ppm [3]

C[Si](C)(C)CCCOC(=O)c1cc2c(cc1F)COB2O [Compound 377]
≥ 80%: inhibition at 200 ppm (Pythium ultimum) | inhibition at 200 ppm [4] | inhibition at 200 ppm [5] | inhibition at 200 ppm (Gaeumannomyces graminis) | inhibition at 200 ppm [2] | inhibition at 200 ppm [3]

O=C(OCC(F)(F)Cl)c1cc2c(cc1Cl)COB2O [Compound 192]
≥ 80%: pest or weed control at 200 ppm (Plasmopara viticola) | inhibition at 200 ppm (Pythium ultimum) | inhibition at 200 ppm [1] | inhibition at 200 ppm [5] | inhibition at 200 ppm (Gaeumannomyces graminis) | inhibition at 200 ppm [2] | inhibition at 200 ppm [3]

Cc1ccccc1NC(=O)c1cc2c(cc1Cl)COB2O [Compound 112]
≥ 80%: inhibition at 200 ppm [1]

CC(F)COC(=O)c1cc2c(cc1Cl)COB2O (stereo not shown) [Compound 209]
≥ 80%: inhibition at 200 ppm (Pythium ultimum) | inhibition at 200 ppm [1] | inhibition at 200 ppm (Gaeumannomyces graminis) | inhibition at 200 ppm [2] | inhibition at 200 ppm [3]

CC(F)COC(=O)c1cc2c(cc1F)COB2O (stereo not shown) [Compound 396]
≥ 80%: pest or weed control at 200 ppm (Plasmopara viticola) | inhibition at 200 ppm (Pythium ultimum) | inhibition at 200 ppm [4] | inhibition at 200 ppm [2] | inhibition at 200 ppm [3]

O=C(OCCCF)c1cc2c(cc1F)COB2O [Compound 390]
≥ 80%: pest or weed control at 200 ppm (Plasmopara viticola) | inhibition at 200 ppm (Pythium ultimum) | inhibition at 200 ppm [1] | inhibition at 200 ppm (Gaeumannomyces graminis) | inhibition at 200 ppm [2] | inhibition at 200 ppm [3]

O=C(OCC1CCSCC1)c1ccc2c(c1)B(O)OC2 [Compound 319]
≥ 80%: inhibition at 200 ppm (Pythium ultimum) | inhibition at 200 ppm [4] | inhibition at 200 ppm [5] | inhibition at 200 ppm [2] | inhibition at 200 ppm [3]

CCCCSCCOC(=O)c1ccc2c(c1)B(O)OC2 [Compound 324]
≥ 80%: pest or weed control at 200 ppm (Plasmopara viticola) | inhibition at 200 ppm (Pythium ultimum) | inhibition at 200 ppm [4] | inhibition at 200 ppm [5] | inhibition at 200 ppm (Gaeumannomyces graminis) | inhibition at 200 ppm [2] | inhibition at 200 ppm [3]

O=C(OCc1cccc2ccccc12)c1ccc2c(c1)B(O)OC2 [Compound 333]
≥ 80%: inhibition at 200 ppm (Pythium ultimum) | inhibition at 200 ppm [4] | inhibition at 200 ppm [5] | inhibition at 200 ppm [2]

C[Si](C)(C)/C=C/COC(=O)c1ccc2c(c1)B(O)OC2 [Compound 342]
≥ 80%: pest or weed control at 200 ppm (Plasmopara viticola) | inhibition at 200 ppm (Pythium ultimum) | inhibition at 200 ppm [4] | inhibition at 200 ppm [5] | inhibition at 200 ppm (Gaeumannomyces graminis) | inhibition at 200 ppm [2] | inhibition at 200 ppm [3]

O=C(OCCCCc1ccc2ccccc2c1)c1cc2c(cc1Cl)COB2O [Compound 227]
≥ 80%: inhibition at 200 ppm [1] | inhibition at 200 ppm [5] | inhibition at 200 ppm [2] | inhibition at 200 ppm [3]

O=C(OCCCF)c1ccc2c(c1)B(O)OC2 [Compound 330]
≥ 80%: pest or weed control at 200 ppm (Plasmopara viticola) | inhibition at 200 ppm (Pythium ultimum) | inhibition at 200 ppm [4] | inhibition at 200 ppm (Gaeumannomyces graminis) | inhibition at 200 ppm [2] | inhibition at 200 ppm [3]

Cc1ccccc1NC(=O)c1ccc2c(c1)B(O)OC2 [Compound 280]
≥ 80%: inhibition at 200 ppm (Pythium ultimum) | inhibition at 200 ppm [1]

O=C(OCc1ncc(C(F)(F)F)cc1Cl)c1cc2c(cc1Cl)COB2O [Compound 221]
≥ 80%: inhibition at 200 ppm (Pythium ultimum) | inhibition at 200 ppm [1] | inhibition at 200 ppm (Gaeumannomyces graminis) | inhibition at 200 ppm [2]

O=C(OC(CF)CF)c1cc2c(cc1Cl)COB2O [Compound 189]
≥ 80%: inhibition at 200 ppm (Pythium ultimum) | inhibition at 200 ppm [1] | inhibition at 200 ppm (Gaeumannomyces graminis) | inhibition at 200 ppm [2]

O=C(OCc1ccc(-c2ccccc2)cc1)c1cc2c(cc1Cl)COB2O [Compound 199]
≥ 80%: inhibition at 200 ppm [1] | inhibition at 200 ppm [5] | inhibition at 200 ppm (Gaeumannomyces graminis) | inhibition at 200 ppm [2]

COCCOC(=O)c1cc2c(cc1Cl)COB2O [Compound 224]
≥ 80%: inhibition at 200 ppm (Pythium ultimum) | inhibition at 200 ppm [1] | inhibition at 200 ppm (Gaeumannomyces graminis) | inhibition at 200 ppm [2]

O=C(OC1CCOCC1)c1cc2c(cc1Cl)COB2O [Compound 237]
≥ 80%: inhibition at 200 ppm (Pythium ultimum) | inhibition at 200 ppm [1] | inhibition at 200 ppm [2]

O=C(OCCC(F)(F)F)c1cc2c(cc1Cl)COB2O [Compound 238]
≥ 80%: pest or weed control at 200 ppm (Plasmopara viticola) | inhibition at 200 ppm (Pythium ultimum) | inhibition at 200 ppm [1] | inhibition at 200 ppm [5] | inhibition at 200 ppm (Gaeumannomyces graminis) | inhibition at 200 ppm [2] | inhibition at 200 ppm [3]

C#CC(CC)OC(=O)c1ccc2c(c1)B(O)OC2 (stereo not shown) [Compound 327]
≥ 80%: pest or weed control at 200 ppm (Plasmopara viticola) | inhibition at 200 ppm (Pythium ultimum) | inhibition at 200 ppm [1] | inhibition at 200 ppm (Gaeumannomyces graminis) | inhibition at 200 ppm [3]

O=C(OCC1CCSCC1)c1cc2c(cc1Cl)COB2O [Compound 196]
≥ 80%: pest or weed control at 200 ppm (Plasmopara viticola) | inhibition at 200 ppm (Pythium ultimum) | inhibition at 200 ppm [1] | inhibition at 200 ppm [5] | inhibition at 200 ppm (Gaeumannomyces graminis) | inhibition at 200 ppm [2]

O=C(OCc1ccc(C(F)(F)F)cc1Cl)c1ccc2c(c1)B(O)OC2 [Compound 326]
≥ 80%: inhibition at 200 ppm [1] | inhibition at 200 ppm (Gaeumannomyces graminis) | inhibition at 200 ppm [2]

COC(=O)C(OC(=O)c1cc2c(cc1F)COB2O)c1ccccc1 (stereo not shown) [Compound 411]
≥ 80%: pest or weed control at 200 ppm (Plasmopara viticola) | inhibition at 200 ppm (Pythium ultimum) | inhibition at 200 ppm [1] | inhibition at 200 ppm [5] | inhibition at 200 ppm (Gaeumannomyces graminis) | inhibition at 200 ppm [2]

O=C(OCCF)c1cc2c(cc1F)COB2O [Compound 423]
≥ 80%: pest or weed control at 200 ppm (Plasmopara viticola) | inhibition at 200 ppm (Pythium ultimum) | inhibition at 200 ppm [4] | inhibition at 200 ppm [5] | inhibition at 200 ppm (Gaeumannomyces graminis) | inhibition at 200 ppm [2] | inhibition at 200 ppm [3]

CC(=O)c1sc(NC(=O)c2cc3c(cc2Cl)COB3O)nc1C [Compound 158]
≥ 80%: inhibition at 200 ppm (Pythium ultimum) | inhibition at 200 ppm [1]

O=C(OC(CF)CF)c1ccc2c(c1)B(O)OC2 [Compound 311]
≥ 80%: pest or weed control at 200 ppm (Plasmopara viticola) | inhibition at 200 ppm (Pythium ultimum) | inhibition at 200 ppm [4] | inhibition at 200 ppm [2] | inhibition at 200 ppm [3]

C=CC(=O)OCC(C)OC(=O)c1cc2c(cc1Cl)COB2O (stereo not shown) [Compound 191]
≥ 80%: inhibition at 200 ppm [1] | inhibition at 200 ppm [5] | inhibition at 200 ppm (Gaeumannomyces graminis) | inhibition at 200 ppm [2]

C#CC(CC)OC(=O)c1cc2c(cc1F)COB2O (stereo not shown) [Compound 387]
≥ 80%: inhibition at 200 ppm (Pythium ultimum) | inhibition at 200 ppm [1] | inhibition at 200 ppm [5] | inhibition at 200 ppm (Gaeumannomyces graminis) | inhibition at 200 ppm [2] | inhibition at 200 ppm [3]
